In patent EP0178388A1, “Quinolinecarboxylic acid derivatives” (KYORIN PHARMACEUTICAL CO., LTD., priority 1984, dated 1986):
In brackets after ≈: the same amount, converted by molar mass. Structures can show the parent of a compound that is named as a salt. Where two headings read alike, the source gives them in different places.

Columns and labels:
Type in all cases: cell-based
S. pyogenes IID 692 = assay: In vitro antibacterial activity, MIC (standard strain); details: Streptococcus pyogenes, IID692, S. pyogenes IID 692, 10^6 cells/ml
S. faecalis 214 = assay: In vitro antibacterial activity, MIC (clinical isolates); details: Enterococcus faecalis; S. faecalis 214, 10^6 cells/ml, clinical isolate
S. faecalis 49 = assay: as above; details: Enterococcus faecalis; S. faecalis 49, 10^6 cells/ml, clinical isolate
S. pyogenes 4372 = assay: as above; details: Streptococcus pyogenes; S. pyogenes 4372, 10^6 cells/ml, clinical isolate
[1] = tested on: Pseudomonas aeruginosa V-1; assay: In vitro antibacterial activity, MIC (standard strain); details: V1; Pseudomonas aeruginosa V-1, 10^6 cells/ml, standard strain; read-out: MIC
S. agalactiae 4470 = assay: In vitro antibacterial activity, MIC (clinical isolates); details: Streptococcus agalactiae; S. agalactiae 4470, 10^6 cells/ml, clinical isolate
[2] = tested on: Peptostreptococcus anaerobius KYA 27337; assay: In vitro antibacterial activity, MIC (standard strain); details: KYA27337, Peptostreptococcus anaerobius KYA 27337, 10^6 cells/ml
B. fragilis 0558 = assay: as above; details: Bacteroides fragilis; B. fragilis 0558, 10^6 cells/ml, standard strain; read-out: MIC
P. mirabilis IID 994 = assay: as above; details: Proteus mirabilis, IID994, P. mirabilis IID 994, 10^6 cells/ml
[3] = tested on: Clostridium difficile I-E; assay: as above; details: Clostridioides difficile, 10^6 cells/ml
S. pyogenes 4340 = assay: In vitro antibacterial activity, MIC (clinical isolates); details: Streptococcus pyogenes; S. pyogenes 4340, 10^6 cells/ml, clinical isolate
S. pneumoniae IID 552 = assay: In vitro antibacterial activity, MIC (standard strain); details: Streptococcus pneumoniae, IID552, S. pneumoniae IID 552, 10^6 cells/ml
S. agalactiae 4342 = assay: In vitro antibacterial activity, MIC (clinical isolates); details: Streptococcus agalactiae; S. agalactiae 4342, 10^6 cells/ml, clinical isolate
S. agalactiae 4368 = assay: as above; details: Streptococcus agalactiae; S. agalactiae 4368, 10^6 cells/ml, clinical isolate
K. pneumoniae KY(GN)6445 = assay: In vitro antibacterial activity, MIC (standard strain); details: Klebsiella pneumoniae
[4] = tested on: S. aureus IID 670 (Terajima); assay: as above; details: Staphylococcus aureus, IID670, 10^6 cells/ml
[5] = tested on: Klebsiella pneumoniae I-220S; assay: as above; details: I220S; Klebsiella pneumoniae I-220S, 10^6 cells/ml, standard strain; read-out: MIC
S. epidermidis IID 866 = assay: as above; details: Staphylococcus epidermidis, IID866, S. epidermidis IID 866, 10^6 cells/ml
[6] = tested on: Salmonella enteritidis IID 604; assay: as above; details: Salmonella enterica; Salmonella enteritidis IID 604, 10^6 cells/ml, standard strain; read-out: MIC
[7] = tested on: Yersinia enterocolitica IID 981; assay: as above; details: IID981; Yersinia enterocolitica IID 981, 10^6 cells/ml, standard strain; read-out: MIC
P. aeruginosa IFO 12689 = assay: as above; details: Pseudomonas aeruginosa, IFO12689, P. aeruginosa IFO 12689, 10^6 cells/ml, standard strain; read-out: MIC
S. faecalis IID 682 = assay: as above; details: Enterococcus faecalis, IID682, S. faecalis IID 682, 10^6 cells/ml
[8] = tested on: Citrobacter freundii IID 976; assay: as above; details: IID976
B. fragilis 25285 = assay: as above; details: Bacteroides fragilis; B. fragilis 25285, 10^6 cells/ml, standard strain; read-out: MIC
S. faecalis 402 = assay: In vitro antibacterial activity, MIC (clinical isolates); details: Enterococcus faecalis; S. faecalis 402, 10^6 cells/ml, clinical isolate
E. coli ATCC 10536 = assay: In vitro antibacterial activity, MIC (standard strain); details: Escherichia coli, ATCC10536
S. pyogenes 3130 = assay: In vitro antibacterial activity, MIC (clinical isolates); details: Streptococcus pyogenes; S. pyogenes 3130, 10^6 cells/ml, clinical isolate
S. faecalis 401 = assay: as above; details: Enterococcus faecalis; S. faecalis 401, 10^6 cells/ml, clinical isolate
Pst. micros UPI 5464-1 = assay: In vitro antibacterial activity, MIC (standard strain); details: Parvimonas micra, UPI54641, Pst. micros UPI 5464-1, 10^6 cells/ml
[9] = tested on: Bacillus subtilis PCI 219; assay: as above; details: PCI219; Bacillus subtilis PCI 219, 10^6 cells/ml, standard strain; read-out: MIC
S. agalactiae 4049 = assay: In vitro antibacterial activity, MIC (clinical isolates); details: Streptococcus agalactiae; S. agalactiae 4049, 10^6 cells/ml, clinical isolate
[10] = tested on: B. thetaiotaomicron (0661); assay: In vitro antibacterial activity, MIC (standard strain); details: Bacteroides thetaiotaomicron; B. thetaiotaomicron (0661), 10^6 cells/ml, standard strain; read-out: MIC
[11] = tested on: Bacteroides fragilis GM 7000; assay: as above; details: GM7000; Bacteroides fragilis GM 7000, 10^6 cells/ml, standard strain; read-out: MIC

CC1CN(c2c(F)cc3c(=O)c(C(=O)O)cn(C4CC4)c3c2F)CCN1 (stereo not drawn) [Example 2, l-Cyclopropyl-6,8-difluoro-l,4-dihydro-7-(3-methyl-l-piperazinyl)-4-oxoquinoline-3-carboxylic acid] showed an MIC (S. pyogenes IID 692) of 0.78 µg/mL (≈ 2.15 µM), an MIC (S. faecalis 214) of 0.78 µg/mL (≈ 2.15 µM) and an MIC (S. faecalis 49) of 0.78 µg/mL (≈ 2.15 µM). It also gave an MIC (S. pyogenes 4372) of 0.78 µg/mL (≈ 2.15 µM), an MIC [1] of 0.2 µg/mL (≈ 0.55 µM) and an MIC (S. agalactiae 4470) of 0.78 µg/mL (≈ 2.15 µM). For the same compound, the MIC [2] was 1.56 µg/mL (≈ 4.29 µM), the MIC (B. fragilis 0558) was 0.78 µg/mL (≈ 2.15 µM) and the MIC (P. mirabilis IID 994) was 0.025 µg/mL (≈ 0.0688 µM). For the same compound, the MIC [3] was 6.25 µg/mL (≈ 17.2 µM), the MIC (S. pyogenes 4340) was 0.78 µg/mL (≈ 2.15 µM) and the MIC (S. pneumoniae IID 552) was 0.78 µg/mL (≈ 2.15 µM). The MIC (S. agalactiae 4342) was 0.78 µg/mL (≈ 2.15 µM), the MIC (S. agalactiae 4368) was 0.78 µg/mL (≈ 2.15 µM) and the MIC (K. pneumoniae KY(GN)6445) was 0.0125 µg/mL (≈ 0.0344 µM). It also gave an MIC [4] of 0.2 µg/mL (≈ 0.55 µM), an MIC [5] of 0.05 µg/mL (≈ 0.138 µM) and an MIC (S. epidermidis IID 866) of 0.2 µg/mL (≈ 0.55 µM). For the same compound, the MIC [6] was 0.025 µg/mL (≈ 0.0688 µM), the MIC [7] was 0.05 µg/mL (≈ 0.138 µM) and the MIC (P. aeruginosa IFO 12689) was 0.78 µg/mL (≈ 2.15 µM). It also gave an MIC (S. faecalis IID 682) of 0.78 µg/mL (≈ 2.15 µM), an MIC ([8]; Citrobacter freundii) of 0.0125 µg/mL (≈ 0.0344 µM) and an MIC (B. fragilis 25285) of 0.78 µg/mL (≈ 2.15 µM). The MIC (S. faecalis 402) was 1.56 µg/mL (≈ 4.29 µM), the MIC (E. coli ATCC 10536; E. coli ATCC 10536, 10^6 cells/ml, standard strain, read-out: MIC) was at most 0.006 µg/mL and the MIC (S. pyogenes 3130) was 0.78 µg/mL (≈ 2.15 µM). For the same compound, the MIC (S. faecalis 401) was 1.56 µg/mL (≈ 4.29 µM), the MIC (Pst. micros UPI 5464-1) was 0.2 µg/mL (≈ 0.55 µM) and the MIC [9] was 0.05 µg/mL (≈ 0.138 µM). The MIC (S. agalactiae 4049) was 1.56 µg/mL (≈ 4.29 µM), the MIC [10] was 3.13 µg/mL (≈ 8.61 µM) and the MIC [11] was 1.56 µg/mL (≈ 4.29 µM).
In the case of CC1CN(c2c(F)cc3c(=O)c(C(=O)O)cn(C4CC4)c3c2Cl)CCN1 (stereo not drawn) [Example 5, 8-Chloro-l-cyclopropyl-6-fluoro-1,4-dihydro-7-(3-methyl-1-piperazinyl)-4-oxoquinoline-3-carboxylic acid hydrochloride], the MIC (S. pyogenes IID 692) is reported as 0.78 µg/mL, the MIC (S. faecalis 214) is reported as 0.78 µg/mL and the MIC (S. faecalis 49) is reported as 0.78 µg/mL. It also gave an MIC (S. pyogenes 4372) of 0.39 µg/mL, an MIC [1] of 0.78 µg/mL and an MIC (S. agalactiae 4470) of 0.78 µg/mL. For the same compound, the MIC [2] was 0.39 µg/mL, the MIC (B. fragilis 0558) was 0.2 µg/mL and the MIC (P. mirabilis IID 994) was 0.025 µg/mL. For the same compound, the MIC [3] was 3.13 µg/mL, the MIC (S. pyogenes 4340) was 0.39 µg/mL and the MIC (S. pneumoniae IID 552) was 0.78 µg/mL. The MIC (S. agalactiae 4342) was 0.78 µg/mL, the MIC (S. agalactiae 4368) was 0.39 µg/mL and the MIC (K. pneumoniae KY(GN)6445; K. pneumoniae KY(GN)6445, 10^6 cells/ml, standard strain, read-out: MIC) was 0.025 µg/mL. It also gave an MIC [4] of 0.1 µg/mL, an MIC [5] of 0.05 µg/mL and an MIC (S. epidermidis IID 866) of 0.1 µg/mL. The MIC [6] was 0.025 µg/mL, the MIC [7] was 0.05 µg/mL and the MIC (P. aeruginosa IFO 12689) was 1.56 µg/mL. It also gave an MIC (S. faecalis IID 682) of 0.39 µg/mL, an MIC ([8]; Citrobacter freundii IID 976, 10^6 cells/ml, standard strain, read-out: MIC) of 0.025 µg/mL and an MIC (B. fragilis 25285) of 0.39 µg/mL. The MIC (S. faecalis 402) was 0.78 µg/mL, the MIC (E. coli ATCC 10536) was 0.0125 µg/mL and the MIC (S. pyogenes 3130) was 0.39 µg/mL. For the same compound, the MIC (S. faecalis 401) was 0.78 µg/mL, the MIC (Pst. micros UPI 5464-1) was 0.2 µg/mL and the MIC [9] was 0.025 µg/mL. It also gave an MIC (S. agalactiae 4049) of 0.78 µg/mL, an MIC [10] of 1.56 µg/mL and an MIC [11] of 0.39 µg/mL.
